Test results taken from patent US7135466B2 (Kirin Beer Kabushiki Kaisha, priority 1999, dated 2006).
Read-outs that look alike come from different tables or passages of the source.

Columns and labels:
[1] = target: T1, PDGF-Ra (Homo sapiens, UniProt P16234); test: Inhibitory activity against PDGF-Ra phosphorylation by PDGF-AA stimulation using G292; assay type: cell-based; settings: for IC50: > means inhibition at indicated concentration not more than 50%, < and << not less than 50%, read-out: PDGF (E) IC50; for inhibition at 0.1 µM: G292, at 100 nM, read-out: PDGF (E) inhibition (%) at 100 nM
T1 construct: host or cells: G-292 human osteosarcoma cells
Procedure, shortened: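 G-292 human osteosarcoma cells, serum-starved overnight in 0.1% FBS, were pretreated with compound in DMSO for 1 hr at 37 °C, then stimulated with 50 ng/ml PDGF-AA for 5 min. Lysates were captured on anti-phosphotyrosine PY-20 plates and probed with anti-PDGF-Ra plus HRP secondary; absorbance read at 450 nm.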

[2] = target: T2, c-kit (Homo sapiens, UniProt P10721); test: Inhibitory activity against c-kit autophosphorylation (MO7e cells, h-SCF); assay type: cell-based; settings: for inhibition at 1 µM: Mo7e, at 1000 nM; for IC50: MO7e cells, read-out: c-kit IC50
T2 construct: MO7e (human megakaryocytic leukemia cell line) which had been arrested for 20 hr; endogenous in cells; host or cells: MO7e human megakaryocytic leukemia cell line
Procedure, shortened: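 Ligand-induced c-kit tyrosine phosphorylation is measured in MO7e cells that were quiesced 20 hr and preincubated with compound for 1 hr prior to a 5 min pulse of 50 ng/ml human SCF. Phospho-c-kit is detected by anti-phosphotyrosine capture ELISA, A450.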

[3] = figure within parentheses in >100( )
[4] = figure within parentheses in −( ) or >1000( )

T1 sequence (P16234 24-1089): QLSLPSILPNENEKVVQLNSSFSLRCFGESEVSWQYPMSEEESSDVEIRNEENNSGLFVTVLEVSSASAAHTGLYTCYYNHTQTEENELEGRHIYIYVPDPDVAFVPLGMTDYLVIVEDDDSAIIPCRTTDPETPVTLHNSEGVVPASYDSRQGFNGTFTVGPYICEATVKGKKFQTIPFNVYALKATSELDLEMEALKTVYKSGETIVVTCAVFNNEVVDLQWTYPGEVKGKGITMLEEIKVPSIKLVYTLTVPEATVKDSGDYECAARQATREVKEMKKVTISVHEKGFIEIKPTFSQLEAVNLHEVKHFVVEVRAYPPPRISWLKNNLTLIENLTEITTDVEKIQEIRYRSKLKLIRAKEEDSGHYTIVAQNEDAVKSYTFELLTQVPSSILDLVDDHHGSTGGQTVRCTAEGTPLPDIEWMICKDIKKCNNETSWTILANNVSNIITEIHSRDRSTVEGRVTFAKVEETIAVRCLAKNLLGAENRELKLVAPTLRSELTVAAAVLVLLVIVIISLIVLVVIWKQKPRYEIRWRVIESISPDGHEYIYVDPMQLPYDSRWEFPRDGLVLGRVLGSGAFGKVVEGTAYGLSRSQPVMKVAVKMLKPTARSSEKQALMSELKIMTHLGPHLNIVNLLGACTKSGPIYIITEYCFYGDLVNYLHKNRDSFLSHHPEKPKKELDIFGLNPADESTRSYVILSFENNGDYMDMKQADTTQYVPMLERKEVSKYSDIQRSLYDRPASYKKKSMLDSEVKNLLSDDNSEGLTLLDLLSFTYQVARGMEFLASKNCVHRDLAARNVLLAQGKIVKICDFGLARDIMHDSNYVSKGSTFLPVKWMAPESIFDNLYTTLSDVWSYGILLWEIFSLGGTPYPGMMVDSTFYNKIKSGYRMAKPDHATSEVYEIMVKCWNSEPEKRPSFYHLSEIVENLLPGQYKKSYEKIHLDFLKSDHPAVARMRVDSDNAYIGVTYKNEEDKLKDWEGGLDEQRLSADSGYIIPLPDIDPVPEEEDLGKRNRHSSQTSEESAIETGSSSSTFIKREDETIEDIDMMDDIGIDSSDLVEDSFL
T2 sequence (P10721 26-976): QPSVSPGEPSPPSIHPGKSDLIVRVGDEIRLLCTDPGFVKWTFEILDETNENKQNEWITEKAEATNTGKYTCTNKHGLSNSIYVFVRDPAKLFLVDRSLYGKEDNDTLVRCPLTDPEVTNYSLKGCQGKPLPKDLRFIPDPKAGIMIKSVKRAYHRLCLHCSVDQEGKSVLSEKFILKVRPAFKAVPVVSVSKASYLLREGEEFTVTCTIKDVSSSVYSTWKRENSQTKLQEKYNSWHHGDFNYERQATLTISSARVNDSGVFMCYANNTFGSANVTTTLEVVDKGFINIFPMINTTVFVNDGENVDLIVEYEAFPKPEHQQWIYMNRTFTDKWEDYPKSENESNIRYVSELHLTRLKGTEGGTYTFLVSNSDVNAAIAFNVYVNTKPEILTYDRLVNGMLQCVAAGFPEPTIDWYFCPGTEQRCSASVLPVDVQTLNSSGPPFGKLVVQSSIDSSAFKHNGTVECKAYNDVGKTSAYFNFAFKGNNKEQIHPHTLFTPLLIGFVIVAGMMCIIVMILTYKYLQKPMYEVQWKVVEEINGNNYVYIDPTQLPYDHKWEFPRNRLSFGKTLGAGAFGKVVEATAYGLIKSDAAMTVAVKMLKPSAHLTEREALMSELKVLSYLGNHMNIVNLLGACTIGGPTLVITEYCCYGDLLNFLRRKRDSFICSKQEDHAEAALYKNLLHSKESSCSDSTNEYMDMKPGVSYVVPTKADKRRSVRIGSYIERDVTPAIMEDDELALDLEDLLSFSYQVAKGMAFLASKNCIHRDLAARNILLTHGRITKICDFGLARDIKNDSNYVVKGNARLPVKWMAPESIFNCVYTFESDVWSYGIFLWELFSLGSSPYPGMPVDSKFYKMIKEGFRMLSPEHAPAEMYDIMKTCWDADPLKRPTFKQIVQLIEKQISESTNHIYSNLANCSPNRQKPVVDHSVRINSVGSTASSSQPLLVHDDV

Compound | IC50 [1] | IC50 ([2]; 50 ng/ml h-SCF) | also measured
COc1cc2nccc(Oc3ccc(NCCOc4c(OC)cccc4OC)cc3C)c2cc1OC [Example 882, N-[2-(2 6-Dimethoxyphenoxy)ethyl]-N-{4-[(6,7-dimethoxy-4-quinolyl)oxy]-3-methylphenyl}amine] | 23 nM | – | inhibition at 1 µM ([2]; figure in parentheses in −( )): 36%
COc1cc2nccc(Oc3ccc(NC(=O)OCc4ccccn4)c(C)c3C)c2cc1OC [Example 431, 2-Pyridylmethyl N-{4-[(6,7-dimethoxy-4-quinolyl)oxy]-2,3-dimethylphenyl}carbamate] | 17 nM | 43 nM | –
COc1cc2nccc(Oc3ccc(NC(=O)Sc4ccc(Cl)cc4C)cc3)c2cc1OC [Example 176, 4-Chloro-2-methylphenyl{4-[(6,7-dimethoxy-4-quinolyl)oxy]anilino}methanethioate] | – | – | IC50 ([1]; Pharmacological Test Example 1): 20 nM; IC50 ([2]; h-SCF 50 ng/ml): < 30 nM
COc1cc2nccc(Oc3cc(C)c(NC(=O)OCc4ccc(C(F)(F)F)cc4)cc3C)c2cc1OC [Example 23, 4-(Trifluoromethyl)benzyl N-{4-[(6,7-dimethoxy-4-quinolyl)oxy]-2,5-dimethylphenyl}carbamate] | – | – | IC50 ([1]; Pharmacological Test Example 1): < 10 nM; IC50 ([2]; h-SCF 50 ng/ml): 475 nM
COc1cc2nccc(Oc3ccc(NC(=S)NC(=O)c4ccc(CCl)cc4)cc3)c2cc1OC [Example 1136, N-[4-(Chloromethyl)benzoyl]-N′-{4-[(6,7-dimethoxy-4-quinolyl)oxy]phenyl}thiourea] | 14 nM | – | IC50 ([2]; h-SCF stimulation): 639 nM
COc1ccc(OC)c(COC(=O)Nc2ccc(Oc3ccnc4cc(OC)c(OC)cc34)cc2)c1 [Example 67, 2,5-Dimethoxybenzyl N-{4-[(6,7-dimethoxy-4-quinolyl)oxy]phenyl}carbamate] | – | – | IC50 ([1]; Pharmacological Test Example 1): < 10 nM; IC50 ([2]; h-SCF 50 ng/ml): 342 nM
CCCCN(CCCC)CCNC(=O)Nc1cc(C)c(Oc2ccnc3cc(OC)c(OC)cc23)cc1C [Example 683, N-[2-(Dibutylamino)ethyl]-N′-{4-[(6,7-dimethoxy-4-quinolyl)oxy]-2,5-dimethylphenyl}urea] | > 100 nM | – | inhibition at 0.1 µM [1, 3]: 40%; inhibition at 1 µM [2, 4]: 26%
COc1cc2ncnc(Oc3ccc(NC(=O)N[C@@H]4CCN(Cc5ccccc5)C4)c([N+](=O)[O-])c3)c2cc1OC [Example 577, N-[(3R)-1-Benzyltetrahydro-1H-3-pyrrolyl]-N′-{4-[(6,7-dimethoxy-4-quinazolinyl)oxy]-2-nitrophenyl}urea] | 14 nM | 328 nM | –
COc1cc2ncnc(Oc3ccc(NC(=O)NC4CCN(Cc5ccccc5)CC4)cc3)c2cc1OC [Example 636, N-(1-Benzyl-4-piperidyl)-N′-{4-[(6,7-dimethoxy-4-quinazolinyl)oxy]phenyl}urea] | 33 nM | 106 nM | –
COc1cc2ncnc(Oc3ccc(OCC(=O)N4CCC(Cc5ccccc5)CC4)cc3)c2cc1OC [Example 804, 1-(4-Benzylpiperidino)-2-{4-[(6,7-dimethoxy-4-quinazolinyl)oxy]phenoxy}-1-ethanone] | 37 nM | – | inhibition at 1 µM [2, 4]: 20%
COc1cc2nccc(Oc3ccc(NC(=S)NC(=O)COc4ccccc4)cc3)c2cc1OC [Example 737, N-{4-[(6,7-Dimethoxy-4-quinolyl)oxy]phenyl}-N′-(2-phenoxyacetyl)thiourea] | < 10 nM | 523 nM | –
COc1cc2nccc(Oc3cc(C)c(NCCOc4c(C)cccc4C)cc3C)c2cc1OC [Example 895, N-{4-[(6,7-Dimethoxy-4-quinolyl)oxy]-2,5-dimethylphenyl}-N-[2-(2,6-dimethylphenoxy)ethyl]amine] | > 100 nM | – | inhibition at 0.1 µM ([1]; figure in parentheses in >100( )): 33%; inhibition at 1 µM ([2]; figure in parentheses in −( )): 20%
COc1cc2nccc(Oc3ccc(NC(=S)NC(=O)COc4ccccc4)cc3Cl)c2cc1OC [Example 738, N-{3-Chloro-4-[(6,7-dimethoxy-4-quinolyl)oxy]phenyl}-N′-(2-phenoxyacetyl)thiourea] | 11 nM | 269 nM | –
CCCC(CCN1CCCCC1)OC(=O)Nc1cc(C)c(Oc2ccnc3cc(OC)c(OC)cc23)cc1C (stereo not shown) [Example 446, 1-(2-Piperidinoethyl)butyl N-{4-[(6,7-dimethoxy-4-quinolyl)oxy]-2,5-dimethylphenyl}carbamate] | > 100 nM | – | inhibition at 0.1 µM [1, 3]: 39%; inhibition at 1 µM [2, 4]: 40%
